Test results taken from patent US8044022B2, “Hyaluronic acid binding peptides enhance host defense against pathogenic bacteria” (priority 2005, dated 2011).
Non-standard residues stand in square brackets, D forms with d. Residues, ends and D or L forms follow the SMILES beside them. No end group written: not given here.

Tests used:
human red blood cells = assay: Hemolytic activity, hemoglobin release from red blood cells (12 hour protocol)
Description: Determination of hemolytic activity is measured through the release of hemoglobin from human red blood cells as measured spectrophotometrically.
Briefly, a dilution series of the peptide was prepared in two-fold dilutions from 512 to 1 μg/mL. Triplicate determinations of each peptide concentration were added to 1% human red blood cells and incubated for 12 hours at 37° C. The negative control for hemolysis consisted of 1% red blood cells with no peptide added. The positive control for hemolysis was 1% red blood cells in 0.15M NH4Cl. Hemoglobin release was measured at an absorbance of 562 nm.
Percent hemolysis is calculated as the ratio of the optical density (OD) of the peptide relative to the OD of the positive control for hemolysis.

[1] = Surface plasmon resonance (Biacore T-100) binding of peptides to immobilized biotin-labeled hyaluronic acid; parameters: species or system rooster; conditions: SPR, biotin-HA immobilized on streptavidin chip
Description: Surface plasmon resonance spectroscopy (SPR) studies were performed on a Biacore T-100 to quantitate the binding of peptides to hyaluronic acid (HA). Biotin-labeled hyaluronic acid (Sigma B1557, hyaluron sodium salt from rooster comb with >97% purity, average approximately 850 kDd, 98% labeled) was immobilized on one of the four flow cells of a streptavidin-coated series S sensor chip SA. […] Peptides were then injected across the surface and the degree of binding interaction is measured in response units (RU).
The average net binding for HABP35 to HA was 399±77 RU or significant binding. The other HA binding peptides also had positive RU values.

S. aureus strain PS80 = assay: Mouse model of S. aureus surgical wound infection; type: in vivo, C57BL6 mice; conditions: 100 μg into wound at time of challenge with 10^2 CFU; 3 days later
Description: Bacterial strains. S. aureus strain PS80 (serotype 8) was obtained from the American Type Culture collection (#27700) and is a potent inducer of intraabdominal abscess formation. S. aureus COL is a methicillin resistant strain that produces a serotype 5 capsule. Staphylococci were cultivated for 24 h at 37° C. on Columbia agar (Difco Laboratories, Detroit, Mich.) supplemented with 2% NaCl.
Mouse model of S. aureus wound infection. Mice (C57BL6, male, 6-8 wk old) were obtained from Jackson Laboratories (Bar Harbor, Me.). Groups of mice (N=4/group/experiment) were anesthetized with 100 mg/kg ketamine and 10 mg/kg xylazine, their right thighs were shaved, and the surgical area was disinfected with iodine and 70% ethanol. An incision was made in the skin to expose the thigh muscle, and a 1-cm incision was made with a scalpel into the thigh muscle to the depth of the bone. The muscle was then closed with one 4-0 silk suture, and 10 μl of a S. aureus suspension ranging in dose from 10^2 to 10^4 CFU was introduced into the incision under the suture. The skin was closed with four additional Prolene sutures. The mice were euthanized at 3 days post-surgery. The wounded muscle tissue was excised, weighed (˜0.08 g), and homogenized in 1 ml of tryptic soy broth. Serial dilutions of the homogenates were plated in duplicate and results were expressed as CFU/g tissue. Peptides were administered to animals in two ways. For most experiments, HABPs were solubilized in PBS and administered with a pipet into the wound in a 10 μl volume following challenge with bacteria. A 100 μg dose was used for most experiments. For therapeutic studies, peptide was administered via a 1 ml tuberculin syringe fitted with a 25 gauge needle in a 0.25 ml volume injected into the thigh muscle containing the wound distal from the incision site.
Gross pathology and histologic analysis of host response. […] Histological examination of these wounds confirmed these findings. Muscle tissue was harvested from mice at designated intervals post-surgery, fixed in 10% buffered formalin, and mounted in paraffin; 5 to 6-μm sections were cut and stained with hematoxylin and eosin for microscopic examination. […] The cellular infiltrate was primarily comprised of PMNs and fibrin.
Statistical analyses. All animal experiments were performed at least two times and the data pooled. Comparison of S. aureus CFU/g tissue was made by the Welch modification of the unpaired Student t test (InStat, GraphPad Software, San Diego, Calif.).

[2] = Fluorometry binding of FITC-conjugated peptide to purified HA in well; parameters: species or system rooster
Description: Lyophilized synthetic peptides were resuspended in PBS pH7.4 prior to use in either in vitro or in vivo experiments. Fluorescein conjugation of HABP01 and SCRM was performed using 5,6 carboxyfluorescein, succinimidyl ester (5,6 FAM) (Molecular Probes, Portland, Oreg.) as per manufacturer's instructions and separated on a Sephadex G-25 column (Amersham, Piscataway, N.J.). Purified, high molecular weight rooster comb HA (Sigma-Aldrich, St Louis, Mo.) was used as a positive control for BP binding.
(§1) Binding of HABP to HA and HA-encapsulated bacteria: To assess whether HABP are able to associate specifically with the GAS capsule, bacteria were cultured to mid-log phase, for maximal HA capsule expression, and incubated with either 10 μg/ml of FITC-conjugated HABP01 or SCRM, with purified HA at 1 mg/ml, as a positive control, or an isogenic mutant strain of GAS deficient in HA capsule, as a negative control. A GAS-specific antibody was used to control for the number of bacteria per well.

GAS [3] = assay: Opsonophagocytic assay with human neutrophils; type: cell-based, Group A Streptococcus; conditions: 50 μg/ml, 2 hours incubation with human neutrophils, 10% absorbed human serum
Description: Encapsulated GAS are resistant to killing by neutrophils in opsonophagocytic assays in the absence of antibodies that bind the bacterial surface. HABPs binding to the bacterial surface may facilitate neutrophil cytotoxicity. Opsonophagocytic assays were performed wherein GAS were incubated with 50 μg/ml of SCRM, HABP01 or HABP35 and mixed with human neutrophils in medium containing 10% absorbed human serum. Aliquots (25 μl) for quantitative culture were withdrawn immediately after mixing neutrophil with GAS and after 2 hr incubation at 37° C. The log increase or decrease in CFU's was calculated. After 2 hours of incubation, there was about a 1.5 log increase in CFU's for GAS treated with PBS or SCRM.

[4] = test system: Wild Type GAS (HA encapsulated); assay: Fluorometry binding of FITC-conjugated peptide to encapsulated GAS; parameters: species or system Group A Streptococcus
Description: (§2) Bacterial strains: GAS strain 950771 is a moderately encapsulated M3 clinical isolate from a child with post-varicella necrotizing fasciitis and sepsis, and an isogenic capsule deficient mutant, 188, derived from 950771. GAS were grown in Todd-Hewitt broth (Difco) to mid-exponential phase OD650 of 0.15 at 37° C. for all experiments. Commercially available trypticase-soy agar medium supplemented with 5% vol/vol sheep blood (BAP)(PML Microbiologicals, British Columbia, Canada) were used for all plate cultures. S. equi s(ATCC 53185) and P. multocida (ATCC 11039) were purchased from ATCC and cultured as recommended. Briefly, S. equi was cultured in Todd-Hewitt broth and S. uberis and P. multocida were cultured in Brain heart infusion (Difco) to OD 650 of 0.15 at 37° C. Quantitative cultures were performed in parallel with each experiment to verify the multiplicity of infection (MOI) of the inoculum.
as §1

P. multocida = assay: Bacterial translocation through polarized keratinocyte cultures (Transwell); type: cell-based, Pasteurella multocida; conditions: 100 μg/ml; vs PBS or SCRM
Description: (§3) Cell cultures: For the preparation of in vitro keratinocyte cultures, human primary OKP7 cells were derived from the oropharynx. Keratinocytes were seeded at 5×10^5 cells per well onto polycarbonate Transwell membrane supports (12 well plates, 3.0 μm pore size; Costar) or tissue culture treated plastic ware and cultured for 5-10 days at 37° C. with 5% humidified CO2 in cSFM medium with daily medium changes. Once confluent, the calcium concentration of the cSFM was increased to 1.2 mM and cells were cultured for 2 more days, before the integrity of the monolayer was assessed by measuring permeability to sodium fluorescein, and in some experiments, by measuring transepithelial electrical resistance.
(§4) Infection procedures: Keratinocyte layer cultures in Transwell inserts were inoculated in the upper chamber with GAS, S. equi, S. uberis, and P. multocida at a multiplicity of infection (MOI) of 1 bacterium per keratinocyte in the presence or absence of HABP01 or SCRM. Infected cultures were incubated at 37° C. with 5% CO2 for the desired time. In translocation experiments, Transwell inserts containing the keratinocytes were moved to new wells containing fresh medium every 2 hours to prevent overgrowth of bacteria that had translocated through the keratinocytes layer to the lower chamber. Bacterial translocation was quantified by culturing medium from the lower chamber at 2-hour intervals. […]

S. equi = assay: as above; type: cell-based, Streptococcus equi; conditions: 100 μg/ml; vs PBS or SCRM
Description: as §3, §4

[5] = test system: GAS internalization by keratinocytes; assay: Bacterial internalization by keratinocyte monolayers; type: cell-based, Group A Streptococcus / human keratinocytes; conditions: 100 μg/ml, 4 hours
Description: Effect of HABP on bacterial internalization by keratinocytes. Encapsulated GAS are poorly internalized by keratinocytes. Yet in the presence of HABPs, intracellular encapsulated GAS are observed by microscopy. To quantify this internalization, keratinocyte monolayers were infected with HA-encapsulated bacteria in the presence of 100 μg/ml of either HABP01 or SCRM for 4 hours. Penicillin and gentamicin were added at 3 hours to kill extracellular bacteria and cells were harvested. Bacteria treated with HABP01 were internalized approximately 40-fold more efficiently than SCRM-treated or untreated samples, and at similar levels to those obtained with acapsular GAS. Internalization of acapsular GAS was unaffected by either peptide.

Staphylococcus aureus = assay: Bacterial translocation through polarized keratinocyte cultures (Transwell); type: cell-based; conditions: 100 μg/ml; vs PBS or SCRM
Acapsular GAS = assay: Fluorometry binding of FITC-conjugated peptide to capsule-deficient GAS; parameters: species or system Group A Streptococcus
Description: as §2, §1

GAS [6] = assay: Bacterial translocation through polarized keratinocyte cultures (Transwell); type: cell-based, Group A Streptococcus; conditions: vs PBS or SCRM
Description: as §3
Infection procedures: Keratinocyte layer cultures in Transwell inserts were inoculated in the upper chamber with GAS, S. equi, S. uberis, and P. multocida at a multiplicity of infection (MOI) of 1 bacterium per keratinocyte in the presence or absence of HABP01 or SCRM. Infected cultures were incubated at 37° C. with 5% CO2 for the desired time. In translocation experiments, Transwell inserts containing the keratinocytes were moved to new wells containing fresh medium every 2 hours to prevent overgrowth of bacteria that had translocated through the keratinocytes layer to the lower chamber. Bacterial translocation was quantified by culturing medium from the lower chamber at 2-hour intervals.
Bacterial translocation studies were performed to assess the impact of HABP01 on bacterial paracellular translocation through polarized keratinocyte cultures.
Incubation of GAS in the presence of HABP33, HABP35 and HABP42, also delayed GAS translocation. At two hours after the addition of GAS to the keratinocytes, approximately 530 CFU of GAS were detected in the lower level in cultures treated with PBS or SCRM peptide.

[7] = fluorometry, HABP35 also confocal microscopy, data not shown

CC[C@H](C)[C@H](NC(=O)[C@H](CCCCN)NC(=O)[C@H](CCC(N)=O)NC(=O)[C@H](CCCCN)NC(=O)[C@@H](N)CC(C)C)C(=O)N[C@@H](CCCCN)C(=O)N[C@@H](Cc1c[nH]cn1)C(=O)N[C@H](C(=O)N[C@H](C(=O)N[C@@H](CCCCN)C(=O)N[C@@H](CC(C)C)C(=O)N[C@@H](CCCCN)C(=O)N[C@H](C(=O)N[C@H](C(=O)N[C@H](C(=O)N[C@@H](CCCCN)C(=O)N[C@@H](CC(C)C)C(=O)N[C@@H](CCCNC(=N)N)C(=O)N[C@@H](CO)C(=O)N[C@@H](CCC(N)=O)C(=O)N[C@@H](CC(C)C)C(=O)N[C@H](C(=O)N[C@@H](CCCCN)C(=O)N[C@@H](CCCNC(=N)N)C(=O)N[C@@H](CCCCN)C(=O)N[C@@H](CCC(N)=O)C(=O)N[C@@H](CC(N)=O)C(N)=O)C(C)C)C(C)C)C(C)C)C(C)C)C(C)C)C(C)C [HABP35] (H-LKQKIKHVVKLKVVVKLRSQLVKRKQN-NH2)
hemolytic activity (human red blood cells; highest concentration tested, 512 μg/mL, 1% human red blood cells, 12 hours, 37° C.): minor hemolytic activity

CC[C@H](C)[C@H](NC(=O)CN)C(=O)NCC(=O)N[C@@H](C)C(=O)N[C@H](C(=O)N[C@@H](CC(C)C)C(=O)N[C@@H](CCCCN)C(=O)N[C@H](C(=O)N[C@@H](CC(C)C)C(=O)N[C@H](C(=O)N[C@H](C(=O)NCC(=O)N[C@@H](CC(C)C)C(=O)N1CCC[C@H]1C(=O)N[C@@H](C)C(=O)N[C@@H](CC(C)C)C(=O)N[C@H](C(=O)N[C@@H](CO)C(=O)N[C@@H](Cc1c[nH]c2ccccc12)C(=O)N[C@H](C(=O)N[C@@H](CCCCN)C(=O)N[C@@H](CCCNC(=N)N)C(=O)N[C@@H](CCCCN)C(=O)N[C@@H](CCCNC(=N)N)C(=O)N[C@@H](CCC(N)=O)C(=O)N[C@@H](CCC(N)=O)C(N)=O)[C@@H](C)CC)[C@@H](C)CC)[C@@H](C)O)[C@@H](C)O)C(C)C)C(C)C [Melittin]
concentration giving levels of hemolysis comparable to HABP35 at 512 μg/mL (human red blood cells; 1% human red blood cells, 12 hours): less than 1 μg/mL
potency as a hemolytic agent relative to HABP35 (human red blood cells; comparison with HABP35): more than 500 times
average net binding to HA [1]: −503±5 RU

STMMSRSHKTRSHHV (all d isomers) ([dS][dT][dM][dM][dS][dR][dS][dH][dK][dT][dR][dS][dH][dH][dV]-NH2) [HABP42]
bacterial burden at the wound site compared with PBS (S. aureus strain PS80): decrease in bacterial burden

STMMSRSHKTRSHHV [HABP01]
binding to purified HA (in words) ([2]; fluorometry): bound specifically
Relative binding ([2]; substrate in well: HA (1 mg/ml), 10 μg/ml FITC-conjugated peptide): 9640 ± 360 relative fluorescent units
log increase in CFU's (GAS [3]): over 1 log
binding to encapsulated GAS (in words) [4, 7]: bound specifically
Relative binding ([4]; substrate in well: Wild Type GAS, 10 μg/ml FITC-conjugated peptide): 11840 ± 230 relative fluorescent units
reduction in translocation of P. multocida (P. multocida): 98%
reduction in translocation of S. equi (S. equi): 98%
internalization of HA-encapsulated bacteria by keratinocytes relative to SCRM-treated or untreated samples [5]: approximately 40 fold
reduction in translocation of Staphylococcus aureus (Staphylococcus aureus): 73%
binding to unencapsulated GAS (in words) (Acapsular GAS; [7]): not to unencapsulated GAS
Relative binding (Acapsular GAS; substrate in well: Acapsular GAS, 10 μg/ml FITC-conjugated peptide): 1940 ± 70 relative fluorescent units
reduction in the translocation of GAS across an intact keratinocyte culture (GAS [6]; 100 μg/ml, treatment of keratinocytes or bacteria): 75-85%

VSKLRSQLVKRKQN (VSKLRSQLVKRKQN-NH2) [HABP33]
decrease in the numbers of translocating GAS bacteria (GAS [6]; two hours after addition of GAS): ~90%
